Measurements reported in patent US20220273752A1, “MODULATION OF DENDRITIC CELL FUNCTION BY THE PHOSPHOLIPID MESSENGER LPA” (Cornell University, priority 2019, published 2022).

Key:
[1] = test system: PERK in human monocyte-derived DCs; experiment: RT-qPCR gene expression in human monocyte-derived DCs treated with LPA and TM, with or without PERK inhibitor; type: cell-based; conditions: LPA 100 μM and TM 1 μg/ml, 6 hours; RT-qPCR relative to ACTB
Description: Monocyte-derived DCs were generated from peripheral human blood and cells were treated for 6 hours with LPA (100 μM), TM (1 μg/ml) or the combination of both, in the presence or absence of the PERK inhibitor AMG PERK 44. Gene expression was subsequently determined by RT-qPCR relative to endogenous ACTB in each sample. FIG. 6A graphically illustrates expression of the PERK-dependent ER stress response gene DDIT3 in monocyte-derived DCs with or without treatment by AMG PERK 44. FIG. 6B graphically illustrates expression of IL6 in monocyte-derived DCs with or without treatment by AMG PERK 44. FIG. 6C graphically illustrates expression of IL1B in monocyte-derived DCs with or without treatment by AMG PERK 44. FIG. 6D graphically illustrates expression of PTGS2 in monocyte-derived DCs with or without treatment by AMG PERK 44. FIG. 6E graphically illustrates expression of VEGFA in monocyte-derived DCs with or without treatment by AMG PERK 44.
(§1) The structure of AMG PERK 44 is shown below as a HCl salt.

[2] = test system: PERK in murine DCs; experiment: PERK inhibitor in murine DCs in vitro (data not shown); type: cell-based
Excerpt: as §1

[3] = test system: tumor-associated dendritic cells (tDCs); experiment: Ex vivo treatment of ovarian cancer ascites, gene expression in tumor-associated DCs; type: cell-based, mouse; conditions: ascites incubated ex vivo with 200 nM or 1000 nM, DCs isolated 24 h later; relative to Actb
Excerpt: FIG. 7A-7B illustrate that conditional PERK deletion in CD11c^+ immune cells (Perk^f/f Cd11c-Cre) delays metastatic ovarian cancer progression. FIG. 7A illustrates survival of female mice of the indicated genotypes (n=8/group) that were intraperitoneally challenged with parental ID8 ovarian cancer cells and host survival was monitored over time. *P<0.05. ****P<0.0001. n=8/group. FIG. 7B graphically illustrates survival of female mice of the indicated genotypes (n=8/group) that were intraperitoneally challenged with variant ovarian cancer cells that are highly aggressive and overexpress VEGFA and Defb29 (ID8-Defb29/Vegf-A). Host survival was monitored over time. *P<0.05. ****P<0.0001. n=8/group. FIG. 8A-8D graphically illustrate expression of LPA/ER stress-induced tumorigenic and immunomodulatory genes by tumor-associated dendritic cells (tDCs) present in ovarian cancer ascites can be diminished using a small-molecule inhibitor targeting autotaxin.

[4] = test system: ovarian cancer cells that overexpress VEGFA and Defb29 (ID8-Defb29/Vegf-A); experiment: Anti-tumor efficacy (host survival) in mice bearing ID8-Defb29/Vegf-A ovarian cancer; type: in vivo, mouse; conditions: mice bearing metastatic ovarian cancer
Excerpt: FIG. 9A is a schematic diagram illustrating the treatment of female mice that were intraperitoneally injected with ID8 ovarian cancer cells overexpressing VEGFA and Def29b. FIG. 9B graphically illustrates host survival as monitored over time of the mice treated as described for FIG. 9A. ***P<0.001. ****P<0.0001.
FIG. 20A schematically illustrates the experimental scheme and treatment regimen employed.
FIG. 20B graphically illustrates the percent survival for the groups described in FIG. 20A. […] FIG. 20C graphically illustrates ascites accumulation over time of the groups of animals treated as described in FIG. 20A. **P<0.001, ***P<0.001. ****P<0.0001.
Consequently, production of this bioactive lipid mediator limits the effects of immunotherapies such as Poly-(I:C) treatment, and of novel chemotherapeutic interventions such as PARP inhibitors. Targeting the autotaxin-LPA pathway may therefore be beneficial to control ovarian cancer progression and unleash protective anti-tumor immune responses that extend host survival. […] Therefore, our findings indicate that autotaxin inhibitors could be repurposed to maximize the efficacy of PARP inhibitors and awaken protective type-I IFN responses in ovarian cancer patients.
Methods similar to those described above were used to evaluate the anti-tumor effects of various autotaxin and LPA receptor inhibitors. The inhibitors were administered to mice that had received ovarian cancer cells that overexpress VEGFA and Defb29 (ID8-Defb29/Vegf-A).

[5] = test system: ID8-based ovarian cancer cells (Enpp2 sgRNA or control sgRNA); experiment: Host survival of mice bearing autotaxin-deficient (Enpp2 sgRNA) or control sgRNA ID8-based ovarian cancer; type: in vivo, mouse; conditions: for host survival in mice bearing autotaxin-deficient ovarian cancer: Enpp2 sgRNA tumors, compared with all other experimental groups
Excerpt: FIG. 17A-17C illustrate host survival and disease progression in mice bearing autotaxin-deficient ovarian cancer (Enpp2 sgRNA) and treated with the TLR3 agonist Poly(1:C). FIG. 17A schematically illustrates the experimental scheme and treatment regimen. FIG. 17B graphically illustrates the survival of the indicated groups when treated as described in FIG. 17A. […] FIG. 17C graphically illustrates ascites accumulation over time of the groups of animals treated as described in FIG. 17A. ****P<0.0001.
FIG. 18A-18C illustrate that blockade of the type-I IFN receptor 1 (IFNAR1) abrogates the therapeutic effects Poly-(I:C) in mice bearing autotaxin-deficient ovarian tumors. FIG. 18A schematically illustrates the experimental scheme and treatment regimen employed. FIG. 18B graphically illustrates the percent survival for the groups described in FIG. 18A. […] FIG. 18C graphically illustrates ascites accumulation over time of the groups of animals treated as described in FIG. 18A. ***P<0.0005, ****P<0.0001.
FIG. 19A-19C illustrate the effects of the PARP inhibitor Talazoparib in mice bearing autotaxin-deficient ovarian cancer cells. FIG. 19A schematically illustrates the experimental scheme and treatment regimen employed. FIG. 19B graphically illustrates the percent survival for the groups described in FIG. 19A. […] FIG. 19C graphically illustrates ascites accumulation over time of the groups of animals treated as described in FIG. 19A. **P<0.001, ***P<0.0005, ****P<0.0001.
To define the in vivo relevance of the findings related to type-I IFN expression, the inventors abrogated the gene encoding the LPA-generating enzyme autotaxin (Enpp2) in ID8-based ovarian cancer cells lines using CRISPR-Cas9.
Based on these key findings, experiments were then performed to determine whether treatment with the TLR3 agonist Poly(I:C), which can enhance type-I IFN immune responses, could increase survival in mice bearing autotaxin-deficient ovarian tumors.
To determine whether these effects are really mediated by enhanced type-I IFN signaling, mice were treated with anti-IFNAR1 blocking antibodies. […]

With `Cc1ccc2cc(-c3c(C)ccc(C(=O)c4c(-c5ccccc5)n(C)n(-c5ccccc5)c4=O)c3N)ccc2n1` [AMG PERK 44] the “induction of pro-tumoral factors (IL6, IL1B, PTGS2, VEGFA) in LPA-exposed human DCs undergoing ER stress” value [1] was “prevents induction of pro-tumoral factors” and the “effect compared with PERK deletion in murine DCs” value [2] was “recapitulate the effects of PERK deletion”.

`CCc1nc2c(C)cc(N3CCN(CC(=O)N4CC(O)C4)CC3)cn2c1N(C)c1nc(-c2ccc(F)cc2)c(C#N)s1` [GLPG1690] was tested, and the “expression of LPA/ER stress-induced Il1b, Il6, Ptgs2 and Vegf-α in tumor-associated DCs” value [3] was “decreased the expression”, the “host survival, single treatment” value ([4]; single agent) was “modestly extended host survival” and the “host survival, combined with Talazoparib” value ([4]; with PARP inhibitor Talazoparib (FIG. 20)) was “significantly improved the therapeutic effects of Talazoparib”. The “host survival, combined with chemotherapy” value ([4]; with chemotherapy (FIG. 9)) was “significantly enhanced the effects of chemotherapy”.

In the case of `Cn1ncnc1[C@H]1c2n[nH]c(=O)c3cc(F)cc(c23)N[C@@H]1c1ccc(F)cc1` [Talazoparib], the “host survival in mice bearing autotaxin-deficient ovarian cancer” value [5] was “significant increase in host survival”.

In the case of Poly(I:C), the “host survival in mice bearing autotaxin-deficient ovarian cancer” value [5] was “remarkable increase in survival” and the “host survival, treatment alone” value ([5]; mice bearing control sgRNA ovarian cancer) was “extended host survival”.
